Measured values from the NIST ThermoML archive (doi:10.1021/je0497496).
“And” between values parts separate entries of the source, which are not always exact repeats. Equal entries are not always repeated. ± gives the expanded uncertainty stated by the source.

Details: buoyancy

N#N [nitrogen]
Fluid (supercritical or subcritical phases)
Details | mass density [kg/m3]
233.02 K, 506.32 kPa | 7.36302 ± 0.025
233.02 K, 1007.1 kPa | 14.7253 ± 0.025
233.02 K, 2000.9 kPa | 29.5563 ± 0.026
233.02 K, 3001.4 kPa | 44.779 ± 0.027
233.02 K, 5030.2 kPa | 76.3292 ± 0.031
233.02 K, 5501 kPa | 83.7756 ± 0.034
233.03 K, 506.34 kPa | 7.36678 ± 0.025
233.03 K, 4002.6 kPa | 60.2496 ± 0.029
253.36 K, 3010.1 kPa | 40.8167 ± 0.026
253.36 K, 5651.9 kPa | 77.5333 ± 0.031
253.37 K, 158.12 kPa | 2.1053 ± 0.024
253.37 K, 1025.2 kPa | 13.7338 ± 0.025
253.37 K, 5051.9 kPa | 69.1481 ± 0.029
253.38 K, 158.09 kPa | 2.10982 ± 0.024
253.38 K, 2061.7 kPa | 27.8018 ± 0.025
253.38 K, 4007.1 kPa | 54.5977 ± 0.028
273.05 K, 1000.4 kPa | 12.3984 ± 0.024
273.06 K, 500.06 kPa | 6.18643 ± 0.024
273.06 K, 500.07 kPa | 6.19019 ± 0.024
273.06 K, 500.09 kPa | 6.18538 ± 0.024
273.06 K, 2000 kPa | 24.878 ± 0.024
273.06 K, 3000.1 kPa | 37.4313 ± 0.025
273.06 K, 4000 kPa | 50.0451 ± 0.026
273.06 K, 5000.4 kPa | 62.6679 ± 0.028
273.06 K, 5500 kPa | 68.9746 ± 0.029
293.02 K, 5015.1 kPa | 58.0251 ± 0.026
293.03 K, 109.97 kPa | 1.26716 ± 0.023
293.03 K, 1037 kPa | 11.9492 ± 0.023
293.03 K, 2014 kPa | 23.2508 ± 0.024
293.03 K, 3106.2 kPa | 35.9063 ± 0.024
293.03 K, 3996.5 kPa | 46.2267 ± 0.025
293.03 K, 5611.3 kPa | 64.8959 ± 0.027
293.04 K, 109.35 kPa | 1.25784 ± 0.023
313.12 K, 508.1 kPa | 5.46882 ± 0.023
313.12 K, 508.11 kPa | 5.46814 ± 0.023
313.12 K, 1000.3 kPa | 10.7709 ± 0.023
313.12 K, 1999.8 kPa | 21.5387 ± 0.023
313.12 K, 3999.9 kPa | 43.0379 ± 0.024
313.12 K, 5000.1 kPa | 53.7535 ± 0.025
313.13 K, 2999.7 kPa | 32.2955 ± 0.024
313.13 K, 5500 kPa | 59.0903 ± 0.026
333.12 K, 147.29 kPa | 1.48909 ± 0.023
333.12 K, 147.34 kPa | 1.48309 ± 0.023
333.12 K, 1049 kPa | 10.6026 ± 0.023
333.12 K, 2020.6 kPa | 20.4085 ± 0.023
333.12 K, 3039 kPa | 30.6553 ± 0.023
333.12 K, 4001.5 kPa | 40.3032 ± 0.024
333.12 K, 5029.1 kPa | 50.5504 ± 0.025
333.12 K, 5511.3 kPa | 55.3242 ± 0.025
353.31 K, 500.05 kPa | 4.76148 ± 0.022
353.31 K, 500.09 kPa | 4.76373 ± 0.022
353.31 K, 1001.8 kPa | 9.53854 ± 0.022
353.31 K, 4000.7 kPa | 37.8636 ± 0.023
353.32 K, 500.08 kPa | 4.76448 ± 0.022
353.32 K, 2000 kPa | 19.0116 ± 0.023
353.32 K, 3001.8 kPa | 28.4762 ± 0.023
353.32 K, 4999.9 kPa | 47.189 ± 0.024
353.32 K, 5500 kPa | 51.8318 ± 0.024

O [water]
Liquid
Details | mass density
273.62 K, 105.71 kPa | 999.859 ± 0.28 kg/m3
273.62 K, 1225.7 kPa | 1000.42 ± 0.28 kg/m3
273.63 K, 105.71 kPa | 999.82 ± 0.28 kg/m3
273.63 K, 2307.2 kPa | 1001.02 ± 0.28 kg/m3
273.63 K, 3781.6 kPa | 1001.68 ± 0.28 kg/m3
273.63 K, 4990.1 kPa | 1002.27 ± 0.28 kg/m3
292.94 K, 1063.5 kPa | 998.673 ± 0.28 kg/m3
292.94 K, 2097.6 kPa | 999.18 ± 0.28 kg/m3
292.94 K, 3109.3 kPa | 999.633 ± 0.28 kg/m3
292.94 K, 4139.9 kPa | 1000.06 ± 0.28 kg/m3 and 1000.08 ± 0.28 kg/m3
292.95 K, 109.3 kPa | 998.268 ± 0.28 kg/m3
302.91 K, 110.01 kPa | 995.77 ± 0.28 kg/m3
302.91 K, 2049.8 kPa | 996.571 ± 0.28 kg/m3
302.91 K, 4030.1 kPa | 997.451 ± 0.28 kg/m3
302.92 K, 1005.9 kPa | 996.106 ± 0.28 kg/m3
312.96 K, 345.05 kPa | 992.42 ± 0.28 kg/m3
312.96 K, 1195.1 kPa | 992.749 ± 0.28 kg/m3
312.96 K, 2093.1 kPa | 993.139 ± 0.28 kg/m3
312.96 K, 3064.5 kPa | 993.609 ± 0.28 kg/m3
312.96 K, 4141.2 kPa | 994.071 ± 0.28 kg/m3
